# What was measured:
# [1] = target: T1, hCB2 receptor (Homo sapiens, UniProt P34972); assay: [3H]CP55,940 competitive binding assay, CB2 (HEK293 cells expressing hCB2); details: against [3H]CP55,940; HEK293 hCB2 membranes
# T1 construct: expressed in transfected cells; host or cells: HEK293
# Procedure: Compounds were tested for their CB1 and CB2 receptor using membrane preparations from rat brain or HEK293 cells expressing hCB2 receptor, respectively, and [^3H]CP55,940 as previously described 1, 36-38. Stock solutions of the compounds (10 mM in DMSO) were diluted in TME buffer (50 mM Tris-HCL, 3 mM MgCl2, 100 mM NaCl, 0.2 mM EDTA, pH 7.4) with 0.1% BSA and transferred to 96 well plates containing [^3H]CP55,940 (specific activity 128 Ci/mmol; NIDA) at a final concentration of 0.76 nM. Non-specific binding was assessed in the presence of 100 nM CP55,940. The binding reaction was initiated with the addition of the respective membrane suspension (˜50 μg membrane protein) followed by incubation at 30° C. with gentle agitation in a shaking water bath for 60 minutes. […] The filter plates were washed with ice-cold wash buffer (50 mM Tris-base, 5 mM MgCl2 with 0.5% BSA) and bound radioactivity was determined using a Packard TopCount Scintillation Counter. The results were analyzed using nonlinear regression to determine the actual IC50 and the Ki values of the ligand (Prizm by GraphPad Software, Inc.). All data were in duplicate with IC50 and Ki values determined from at least two independent experiments.
# The affinity of a compound for CB1 vs. CB2 is determined by the ratio of the inhibitory constants (Ki), as determined by the competitive binding assay.
# [2] = tested on: Rats; assay: Taste reactivity studies (conditioned gaping, saccharin preference); assay type: in vivo, rat; details: for Mean (±SEM) saccharin preference ratio: 2-bottle preference test
# Procedure: Rats were implanted with intraoral cannulae and 24 hrs prior to the surgical procedure, they were administered a prophylactic antibiotic (Derapin, 100 mg/kg, sc; Ayerst). On the day of surgery, the rats were anaesthetized with isofluorane gas and were administered Anafen (7.0 mg/kg, sc; Merial), a nonsteroidal anti-inflammatory drug (NSAID) with analgesic properties. A 3.0 cm^2 patch of fur was shaved at the back of the neck just above the scapula and the area was surgically prepared [Betadine surgical scrub (Purdue Frederick) and alcohol]. A thin-walled 15-gauge stainless steel needle was inserted at the back of the neck, directed s.c., around the ear and brought out behind the first molar inside the mouth. A length of IntraMedic polyetheylene tubing with an inner diameter of 0.86 mm and an outer diameter of 1.27 mm was then run through the needle after which the needle was removed. Two circular elastic discs were placed over the tubing and drawn to the exposed skin at the back of the neck for the purpose of stabilizing the cannula. The tubing was held secure in the oral cavity by an o-ring, which was sealed behind the tubing prior to cannulation surgery. For the purposes of conditioning and testing, the cannula was connected to the infusion pump (Harvard Apparatus, South Natick, Mass.) for delivery of the solution by slipping the tubing of the cannula inside a second polyethylene tube (inner diameter 1.19 mm, outer diameter 1.70 mm) attached to the infusion pump. Two rats were subsequently removed from the study due to an ineffective cannula.
# Five days after surgery and prior to conditioning (day 1), rats were individually placed in the Plexiglas taste reactivity chamber (22.5×26×20 cm) with their cannula attached to the infusion pump for fluid delivery. The rats were habituated to the taste reactivity procedure by infusing them with water for a period of 5 min at a rate of 1.0 ml/min after which they were returned to their home cage. On day 2, the rats were individually taken to the chamber for a single conditioning trial. They were intraorally infused with 0.1% saccharin solution for 5 min at a rate of 1.0 ml/min while their orofacial and somatic responses were videotaped from a mirror at a 45° angle below the chamber. Immediately after the saccharin infusion the rats were injected with the appropriate dose of Compound 3, according to random assignment: 0.0 mg/kg (vehicle; n=8), 2.0 mg/kg (n=7), 4.0 mg/kg (n=7), 8.0 mg/kg (n=8). On day 5, the animals were given a second adaptation trial with a 5-min intraoral infusion of water.
# Taste reactivity testing occurred on day 6, 96 hr after conditioning. The rats were taken to the chamber and following a period of 1 min were infused with 0.1% saccharin solution over a period of 5 min (1.0 ml/min) while being videotaped. Immediately after the session, the rats were returned to their home cage. On day 7, following 15 hr of water deprivation, the rats were given a 2-bottle preference test. The rats were presented with a graduated tube containing 0.1% saccharin solution and a graduated tube containing water for a period of 120 min. The amount consumed from each bottle during the 120 min of drinking was converted to a preference score: Amount consumed of saccharin solution/amount consumed of saccharin+amount consumed of water. The taste reactivity videotapes were scored using the Observer (Noldus Information Technology, Sterling, Va.) event-recording program. The behaviors scored included the frequency of gaping, chin rubs, ingestive reactions, passive drips and activity. Gaping was defined as rapid, large-amplitude opening of the mandible with retraction of the corners of the mouth. Chin rubbings were defined as chin or mouth in direct contact with the floor or wall of the chamber and forward projections of the body. […]
# [3] = tested on: Rats; assay: Operant lever pressing on FR5 schedules; assay type: in vivo, rat
# Procedure: Following the initial training period, rats (n=8 each group) were injected with drug and then tested once a week on Thursdays. For experiments 1 and 2, Compound 3 or Compound 2, respectively were injected IP at doses of 1.0, 2.0, 4.0, or 8.0 mg/kg or vehicle. Pretreatment time for these two experiments was 30 min. For experiments 3 and 4, rats were given drug or vehicle orally 1 hour before testing. In experiment 3, rats were given vehicle or 8.0, 16.0, or 32.0 mg/kg Compound 3. In experiment 4, rats received vehicle or Compound 2 at doses of 4.0, 8.0, or 16.0 mg/kg. All doses were given in a randomized order using a repeated measures design.
# [4] = target: T2, hCB1 (Homo sapiens, UniProt P21554); assay: Forskolin-stimulated cAMP assay; assay type: cell-based
# T2 construct: expressed in transfected cells; host or cells: HEK293
# T2 sequence (P21554 whole entry): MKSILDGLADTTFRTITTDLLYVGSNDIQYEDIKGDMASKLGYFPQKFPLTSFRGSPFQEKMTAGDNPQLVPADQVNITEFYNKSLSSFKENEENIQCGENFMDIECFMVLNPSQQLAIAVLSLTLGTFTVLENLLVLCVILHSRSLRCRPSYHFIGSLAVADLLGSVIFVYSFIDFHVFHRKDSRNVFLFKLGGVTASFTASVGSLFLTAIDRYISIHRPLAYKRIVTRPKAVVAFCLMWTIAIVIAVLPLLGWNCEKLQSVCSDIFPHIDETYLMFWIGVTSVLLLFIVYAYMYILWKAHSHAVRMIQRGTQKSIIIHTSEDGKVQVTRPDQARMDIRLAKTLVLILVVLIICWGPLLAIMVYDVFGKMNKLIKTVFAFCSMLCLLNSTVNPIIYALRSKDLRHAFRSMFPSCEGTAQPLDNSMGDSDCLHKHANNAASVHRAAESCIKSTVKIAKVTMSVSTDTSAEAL
# Procedure: Intracellular cAMP levels were measured with a competitive protein-binding assay using intact HEK293 cells expressing hCB1 or hCB2 and a cAMP immunoassay kit from Sigma (St. Louis, Mo.). In short, forskolin stimulated cells were incubated with various concentrations of compound, cAMP anti-body and cAMP conjugate for 2 hours at ambient temperature. The reaction was stopped by emptying the wells followed by the addition of p-NPP substrate and incubation for 1 hour. […] The results were expressed as percent inhibition of forskolin-stimulated cAMP accumulation and EC50 curves were generated with the use of GraphPad Prism software.
# T1 sequence (P34972 whole entry): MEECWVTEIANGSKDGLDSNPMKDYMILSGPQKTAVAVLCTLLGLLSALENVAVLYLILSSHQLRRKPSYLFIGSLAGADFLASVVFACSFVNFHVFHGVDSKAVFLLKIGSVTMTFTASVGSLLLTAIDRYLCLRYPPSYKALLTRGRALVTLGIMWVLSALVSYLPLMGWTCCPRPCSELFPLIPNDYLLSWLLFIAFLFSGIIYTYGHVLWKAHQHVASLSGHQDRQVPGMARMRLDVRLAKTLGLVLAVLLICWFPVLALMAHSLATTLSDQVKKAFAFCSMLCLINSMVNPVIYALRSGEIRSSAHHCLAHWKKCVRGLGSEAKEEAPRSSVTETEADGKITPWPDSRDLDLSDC
smiles,measurement,setting,value
Cc1c(C(=O)NN2CCCCC2)nn(-c2ccc(Cl)cc2Cl)c1-c1ccc(C#CCCC#N)cc1 [Compound 3],Ki,[1],92 nM
same,"ingestion (hedonic) taste reactions, Mean±SEM",[2]; 2.0 mg/kg,10.5 (3.2)
same,Mean (±SEM) saccharin preference ratio,[2]; 2.0 mg/kg,0.411 (0.059)
same,"ingestion (hedonic) taste reactions, Mean±SEM",[2]; 4.0 mg/kg,4.5 (1.5)
same,Mean (±SEM) saccharin preference ratio,[2]; 4.0 mg/kg,0.298 (0.074)
same,"ingestion (hedonic) taste reactions, Mean±SEM",[2]; 8.0 mg/kg,1.3 (0.5)
same,Mean (±SEM) saccharin preference ratio,[2]; 8.0 mg/kg,0.088 (+0.017)
same,effect on chin rubbing or conditioned gaping,"[2]; 2.0, 4.0, 8.0 mg/kg",no significant effects
same,suppression of FR5 responding compared to vehicle,"[3]; IP 1.0, 2.0, 4.0, 8.0 mg/kg",significantly suppressed
same,ED50,"[3]; Rattus norvegicus, IP, pretreatment 30 min, read-out: ED50 for the effect on FR5 responding",0.78 mg/kg
same,change in lever pressing on FR5 compared to vehicle,"[3]; oral, 1 hour before testing (Compound 3 8.0-32.0 mg/kg; Compound 2 4.0-16.0 mg/kg)",no significant change
same,change of forskolin-stimulated cAMP accumulation,"[4]; CB1 transfected HEK cells, up to concentrations of 630 nM",did not change
same,effect on forskolin stimulated cAMP production,[4]; HEK293 cells transfected with human CB1 receptors,no effect
